Reference: ChEMBL document CHEMBL3045271, “Synthesis and insecticidal activity of new phosphoramidates” (2012)

Legend:
Format in all cases: functional
Plutella xylostella [1] = assay: Insecticidal activity against second-instar larvae of Plutella xylostella (diamondback moth) assessed as mortality at compound administered topically at 1 ug/mg insect measured after 24 hr
Ascia monuste [2] = assay: Insecticidal activity against second-instar larvae of Ascia monuste assessed as mortality at compound administered topically at 1 ug/mg insect measured after 48 hr
Diaphania hyalinata [3] = assay: Insecticidal activity against second-instar larvae of Diaphania hyalinata assessed as mortality at compound administered topically at 1 ug/mg insect measured after 48 hr
Plutella xylostella [4] = assay: Insecticidal activity against second-instar larvae of Plutella xylostella (diamondback moth) assessed as mortality at compound administered topically at 1 ug/mg insect measured after 72 hr
Diaphania hyalinata [5] = assay: Insecticidal activity against second-instar larvae of Diaphania hyalinata assessed as mortality at compound administered topically at 1 ug/mg insect measured after 24 hr
Diaphania hyalinata [6] = assay: Insecticidal activity against second-instar larvae of Diaphania hyalinata assessed as mortality at compound administered topically at 1 ug/mg insect measured after 72 hr
Plutella xylostella [7] = assay: Insecticidal activity against second-instar larvae of Plutella xylostella (diamondback moth) assessed as mortality at compound administered topically at 1 ug/mg insect measured after 48 hr
Ascia monuste [8] = assay: Insecticidal activity against second-instar larvae of Ascia monuste assessed as mortality at compound administered topically at 1 ug/mg insect measured after 24 hr
Ascia monuste [9] = assay: Insecticidal activity against second-instar larvae of Ascia monuste assessed as mortality at compound administered topically at 1 ug/mg insect measured after 72 hr

Compound | mortality (Plutella xylostella [1]) [%] | mortality (Ascia monuste [2]) [%] | mortality (Diaphania hyalinata [3]) [%] | mortality (Plutella xylostella [4]) [%] | mortality (Diaphania hyalinata [5]) [%] | mortality (Diaphania hyalinata [6]) [%] | mortality (Plutella xylostella [7]) [%] | mortality (Ascia monuste [8]) [%] | mortality (Ascia monuste [9]) [%]
CCN(CC)P(=O)(Oc1ccco1)Oc1ccco1 | 17.5 | 65 | 55 | 30 | 55 | 70 | 20 | 62.5 | 67.5
CCN(CC)P(=O)(Oc1occc1Cc1ccccc1F)N(CC)CC | 12.5 | 27.5 | 23.3 | 35 | 23.3 | 23.3 | 22.5 | 22.5 | 32.5
CCN(CC)P(=O)(Oc1occc1Cc1ccc(C)cc1)N(CC)CC | 20 | 15 | 25 | 32.5 | 25 | 30 | 25 | 5 | 17.5
CCN(CC)P(=O)(Oc1occc1Cc1ccc(Br)cc1)N(CC)CC | 7.5 | 5 | 27.5 | 32.5 | 27.5 | 35 | 20 | 2.5 | 7.5
CCN(CC)P(=O)(Oc1occc1Cc1cccc(C)c1)N(CC)CC | 22.5 | 12.5 | 15 | 45 | 15 | 15 | 40 | 7.5 | 12.5
O=P(Oc1ccco1)(Oc1ccco1)N1CCCCC1 | 5 | 87.5 | 7.5 | 10 | 7.5 | 17.5 | 5 | 87.5 | 90
Cc1ccc(CC2=CCOC2=O)cc1 | 12.5 | 12.5 | 10 | 25 | 10 | 12.5 | 17.5 | 5 | 17.5
COP(=S)(OC)Oc1nc(Cl)c(Cl)cc1Cl [CHLORPYRIFOS-METHYL] | 100 | 100 | 100 | 100 | 100 | 100 | 100 | 100 | 100
CCN(CC)P(=O)(Oc1ccco1)N(CC)CC | 7.5 | 10 | 22.5 | 22.5 | 22.5 | 25 | 10 | 2.5 | 12.5
CCN(CC)P(=O)(Oc1occc1Cc1cccc(Br)c1)N(CC)CC | 27.5 | 7.5 | 25 | 47.5 | 25 | 27.5 | 32.5 | 2.5 | 10
O=C1C=CCO1 [FURAN-2(5H)-ONE] | 27.5 | 22.5 | 18.9 | 32.5 | 18.9 | 24.3 | 27.5 | 12.5 | 25
O=P(Oc1ccco1)(N1CCCCC1)N1CCCCC1 | 5 | 75 | 7.5 | 20 | 7.5 | 10 | 10 | 70 | 75
CCN(CC)P(=O)(Oc1occc1Cc1ccccc1)N(CC)CC | 25 | 27.5 | 5 | 45 | 5 | 5 | 30 | 22.5 | 25
CCN(CC)P(=O)(Oc1occc1Cc1c(C)cccc1Cl)N(CC)CC | 5.3 | 15 | 20 | 37.5 | 20 | 20 | 20 | 5 | 20
CCN(CC)P(=O)(Oc1occc1Cc1cccc(Cl)c1)N(CC)CC | 5 | 7.5 | 12.5 | 37.5 | 12.5 | 12.5 | 22.5 | 0 | 12.5
CCN(CC)P(=O)(Oc1occc1Cc1ccccc1Cl)N(CC)CC | 20 | 5 | 10 | 45 | 10 | 10 | 32.5 | 5 | 5
CCN(CC)P(=O)(Oc1occc1Cc1cccc(F)c1)N(CC)CC | 30 | 17.5 | 23.3 | 52.5 | 23.3 | 36.6 | 42.5 | 5 | 15
O=P(NC1CCCCC1)(NC1CCCCC1)Oc1ccco1 | 2.5 | 70 | 2.5 | 12.5 | 2.5 | 10 | 7.5 | 70 | 70
